Source: patent publication US20150105252A1, “SUBSTITUTED PYRAZOLES AS HERBICIDES” (E I DU PONT DE NEMOURS AND COMPANY, priority 2013, published 2015)

Key:
[1] = tested on: dayflower, VA; assay: Test F preemergence; format: in vivo, Commelina virginica
Procedure, shortened: (§1)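 Visual injury was scored from 0 (none) to 100 (complete control) relative to untreated controls after 14–21 days in a greenhouse. Before that, formulated compound (solvent plus surfactant) was sprayed either on silt-loam soil right after sowing or on emerged plants at the 1–4-leaf stage, 2–18 cm tall.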

[2] = tested on: foxtail, green; assay: Test D preemergence; format: in vivo, Setaria viridis; conditions: scale 0 to 100
Procedure, shortened: (§2)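 Whole-plant herbicidal activity; pre- and postemergence sprays. Soil: silt loam (pre); peat/vermiculite medium (post, 1–4 leaf). Assessment: 14–21 days, visual, 0 = no effect, 100 = complete control.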

[3] = tested on: buckwheat, wild; assay: Test D preemergence; format: in vivo, Polygonum convolvulus; conditions: scale 0 to 100
Procedure, shortened: as §2

[4] = tested on: bromegrass, downy; assay: Test D preemergence; format: in vivo, Bromus tectorum; conditions: scale 0 to 100
Source text: (§3) Seeds of plant species selected from bluegrass (annual bluegrass, Poa annua), blackgrass (Alopecurus myosuroides), canarygrass (littleseed canarygrass, Phalaris minor), chickweed (common chickweed, Stellaria media), galium (catchweed bedstraw, Galium aparine), bromegrass, downy (downy bromegrass, Bromus tectorum), field poppy (Papaver rhoeas), field violet (Viola arvensis), foxtail, green (green foxtail, Setaria viridis), deadnettle (henbit deadnettle, Lamium amplexicaule), ryegrass, Italian (Italian ryegrass, Lolium multiflorum), kochia (Kochia scoparia), lambsquarters (Chenopodium album), oilseed rape (Brassica napus), pigweed (redroot pigweed, Amaranthus retroflexus), chamomile (scentless chamomile, Matricaria inodora), speedwell (bird's-eye speedwell, Veronica persica), barley, spring (spring barley, Hordeum vulgare), wheat, spring (spring wheat, Triticum aestivum), buckwheat, wild (wild buckwheat, Polygonum convolvulus), mustard, wild (wild mustard, Sinapis arvensis), oat, wild (wild oat, Avena fatua), radish, wild (wild radish, Raphanus raphanistrum), windgrass (Apera spica-venti), Russian thistle (Salsola kali), barley, winter (winter barley, Hordeum vulgare), and wheat, winter (winter wheat, Triticum aestivum) were planted into a silt loam soil and treated preemergence with test chemicals formulated in a non-phytotoxic solvent mixture which included a surfactant.
(§4) At the same time, these species were planted in pots containing Redi-Earth® planting medium (Scotts Company, 14111 Scottslawn Road, Marysville, Ohio 43041) comprising spaghnum peat moss, vermiculite, wetting agent and starter nutrients and treated with postemergence applications of the test chemicals formulated in the same manner. Plants ranged in height from 2 to 18 cm (1- to 4-leaf stage). Treated plants and controls were maintained in a controlled growth environment for 14 to 21 days after which time all species were compared to controls and visually evaluated. Plant response ratings, summarized in Table D, are based on a scale of 0 to 100 where 0 is no effect and 100 is complete control. A dash (-) response means no test result.

[5] = tested on: yellow nutsedge; assay: Test F preemergence; format: in vivo, Cyperus esculentus
Source text: (§5) Seeds of plant species selected from corn (Zea mays), soybean (Glycine max), velvetleaf (Abutilon theophrasti), lambsquarters (Chenopodium album), wild poinsettia (Euphorbia heterophylla), pigweed, palmer (palmer pigweed, Amaranthus palmeri), common waterhemp (Amaranthus rudis), surinam grass (Brachiaria decumbens), large crabgrass (Digitaria sanguinalis), crabgrass, Brazil (Brazilian crabgrass, Digitaria horizontalis), fall panicum (Panicum dichotomiflorum), giant foxtail (Setaria faberii), green foxtail (Setaria viridis), goosegrass (Eleusine indica), johnsongrass (Sorghum halepense), common ragweed (Ambrosia elation), barnyardgrass (Echinochloa crus-galli), southern sandbur (Cenchrus echinatus), arrowleaf sida (Sida rhombifolia), Italian ryegrass (Lolium multiflorum), dayflower, VA (Virginia (VA) dayflower, Commelina virginica), field bindweed (Convolvulus arvensis), cocklebur (common cocklebur, Xanthium strumarium), morningglory (Ipomoea coccinea), nightshade (eastern black nightshade, Solanum ptycanthum), kochia (Kochia scoparia), yellow nutsedge (Cyperus esculentus), and hairy beggarticks (Bidens pilosa), were planted into a silt loam soil and treated preemergence with test chemicals formulated in a non-phytotoxic solvent mixture which included a surfactant.
(§6) At the same time, plants from these crop and weed species and also horseweed (Canada horseweed, Conyza canadensis), smartweed (ladysthumb smartweed, Polygonum persicaria), waterhemp_RES1, (ALS & Triazine resistant common waterhemp, Amaranthus rudis), and waterhemp_RES2, (ALS & HPPD resistant common waterhemp, Amaranthus rudis) were treated with postemergence applications of test chemicals formulated in the same manner. Plants ranged in height from 2 to 18 cm for postemergence treatments (1- to 4-leaf stage). Treated plants and controls were maintained in a greenhouse for 14 to 21 days, after which time all species were compared to controls and visually evaluated. Plant response ratings, summarized in Table F, are based on a scale of 0 to 100 where 0 is no effect and 100 is complete control. A dash (-) response means no test result.

[6] = tested on: Surinam grass; assay: Test F preemergence; format: in vivo, Brachiaria decumbens
Procedure, shortened: as §1

[7] = tested on: southern sandbur; assay: Test F preemergence; format: in vivo, Cenchrus echinatus
Source text: as §5, §6

[8] = tested on: johnsongrass; assay: Test F preemergence; format: in vivo, Sorghum halepense
Procedure, shortened: as §1

[9] = tested on: oat, wild; assay: Test D postemergence; format: in vivo, Avena fatua; conditions: scale 0 to 100
Procedure, shortened: as §2

[10] = tested on: bromegrass, downy; assay: Test D postemergence; format: in vivo, Bromus tectorum; conditions: scale 0 to 100
Source text: as §3, §4

[11] = tested on: barley, spring; assay: Test D postemergence; format: in vivo, Hordeum vulgare; conditions: scale 0 to 100
Source text: as §3, §4

[12] = tested on: barley, winter; assay: Test D postemergence; format: in vivo, Hordeum vulgare; conditions: scale 0 to 100
Source text: as §3, §4

[13] = tested on: common waterhemp; assay: Test F preemergence; format: in vivo, Amaranthus rudis
Source text: as §5, §6

[14] = tested on: goosegrass; assay: Test F preemergence; format: in vivo, Eleusine indica
Procedure, shortened: as §1

[15] = Preemergence, 31 g ai/ha, scale 0 to 100
[16] = Preemergence, 62 g ai/ha, scale 0 to 100
[17] = Preemergence, 125 g ai/ha, scale 0 to 100
[18] = preemergence, 8 g ai/ha, scale 0 to 100, 100 is complete control
[19] = preemergence, 16 g ai/ha, scale 0 to 100, 100 is complete control

CCc1cc(C(=O)NCC(F)(F)F)nn1Cc1ccnc(C(F)(F)F)c1 [Compound 78, 5-ethyl-N-(2,2,2-trifluoroethyl)-1-[[(2-trifluoromethyl)-4-pyridinyl]methyl]-1H-pyrazole-3-carboxamide]
Plant response rating, Dayflower, VA [1, 15]: 50
Plant response rating, Dayflower, VA [1, 16]: 95
Plant response rating, Dayflower, VA [1, 17]: 100
Plant response rating, Dayflower, VA [1, 18]: 0
Plant response rating, Dayflower, VA [1, 19]: 0
Plant response rating, Foxtail, Green ([2]; 31 g ai/ha): 50
Plant response rating, Foxtail, Green ([2]; 62 g ai/ha): 100
Plant response rating, Foxtail, Green ([2]; 125 g ai/ha): 100
Plant response rating, Foxtail, Green ([2]; 250 g ai/ha): 100
Plant response rating, Buckwheat, Wild ([3]; 31 g ai/ha): 95
Plant response rating, Buckwheat, Wild ([3]; 62 g ai/ha): 100
Plant response rating, Buckwheat, Wild ([3]; 125 g ai/ha): 100
Plant response rating, Buckwheat, Wild ([3]; 250 g ai/ha): 100
Plant response rating, Bromegrass, Downy ([4]; 31 g ai/ha): 10
Plant response rating, Bromegrass, Downy ([4]; 62 g ai/ha): 20
Plant response rating, Bromegrass, Downy ([4]; 125 g ai/ha): 70
Plant response rating, Bromegrass, Downy ([4]; 250 g ai/ha): 75
Plant response rating, Yellow Nutsedge [5, 15]: 20
Plant response rating, Yellow Nutsedge [5, 16]: 70
Plant response rating, Yellow Nutsedge [5, 17]: 90
Plant response rating, Yellow Nutsedge [5, 18]: 0
Plant response rating, Yellow Nutsedge [5, 19]: 0
Plant response rating, Surinam Grass [6, 15]: 50
Plant response rating, Surinam Grass [6, 16]: 75
Plant response rating, Surinam Grass [6, 17]: 100
Plant response rating, Surinam Grass [6, 18]: 20
Plant response rating, Surinam Grass [6, 19]: 20
Plant response rating, Southern Sandbur [7, 15]: 5
Plant response rating, Southern Sandbur [7, 16]: 80
Plant response rating, Southern Sandbur [7, 17]: 95
Plant response rating, Southern Sandbur [7, 18]: 0
Plant response rating, Southern Sandbur [7, 19]: 0
Plant response rating, Johnsongrass [8, 15]: 30
Plant response rating, Johnsongrass [8, 16]: 95
Plant response rating, Johnsongrass [8, 17]: 100
Plant response rating, Johnsongrass [8, 18]: 20
Plant response rating, Johnsongrass [8, 19]: 20
Oat, Wild plant response rating ([9]; Postemergence, 31 g ai/ha): 15
Oat, Wild plant response rating ([9]; Postemergence, 125 g ai/ha): 25
Oat, Wild plant response rating ([9]; Postemergence, 250 g ai/ha): 40
Oat, Wild plant response rating ([9]; postemergence, 62 g ai/ha): 20
Bromegrass, Downy plant response rating ([10]; Postemergence, 31 g ai/ha): 10
Bromegrass, Downy plant response rating ([10]; Postemergence, 125 g ai/ha): 20
Bromegrass, Downy plant response rating ([10]; Postemergence, 250 g ai/ha): 25
Bromegrass, Downy plant response rating ([10]; postemergence, 62 g ai/ha): 15
Barley, Spring plant response rating ([11]; Postemergence, 31 g ai/ha): 0
Barley, Spring plant response rating ([11]; Postemergence, 125 g ai/ha): 10
Barley, Spring plant response rating ([11]; Postemergence, 250 g ai/ha): 30
Barley, Spring plant response rating ([11]; postemergence, 62 g ai/ha): 0
Barley, Winter plant response rating ([12]; Postemergence, 31 g ai/ha): 5
Barley, Winter plant response rating ([12]; Postemergence, 125 g ai/ha): 15
Barley, Winter plant response rating ([12]; Postemergence, 250 g ai/ha): 25
Barley, Winter plant response rating ([12]; postemergence, 62 g ai/ha): 10
Plant response rating, Common Waterhemp [13, 15]: 100
Plant response rating, Common Waterhemp [13, 16]: 100
Plant response rating, Common Waterhemp [13, 17]: 100
Plant response rating, Common Waterhemp [13, 18]: 65
Plant response rating, Common Waterhemp [13, 19]: 100
Plant response rating, Goosegrass [14, 15]: 90
Plant response rating, Goosegrass [14, 16]: 90
Plant response rating, Goosegrass [14, 17]: 100
Plant response rating, Goosegrass [14, 18]: 5
Plant response rating, Goosegrass [14, 19]: 40

CCCc1cc(C(=O)NCC(F)(F)F)nn1Cc1ccnc(C(F)(F)F)c1 [Compound 105]
Plant response rating, Dayflower, VA [1, 15]: 50
Plant response rating, Dayflower, VA [1, 16]: 80
Plant response rating, Dayflower, VA [1, 17]: 98
Plant response rating, Dayflower, VA [1, 18]: 0
Plant response rating, Dayflower, VA [1, 19]: 40
Plant response rating, Foxtail, Green ([2]; 31 g ai/ha): 45
Plant response rating, Foxtail, Green ([2]; 62 g ai/ha): 100
Plant response rating, Foxtail, Green ([2]; 125 g ai/ha): 100
Plant response rating, Foxtail, Green ([2]; 250 g ai/ha): 100
Plant response rating, Buckwheat, Wild ([3]; 31 g ai/ha): 85
Plant response rating, Buckwheat, Wild ([3]; 62 g ai/ha): 90
Plant response rating, Buckwheat, Wild ([3]; 125 g ai/ha): 95
Plant response rating, Buckwheat, Wild ([3]; 250 g ai/ha): 100
Plant response rating, Bromegrass, Downy ([4]; 31 g ai/ha): 5
Plant response rating, Bromegrass, Downy ([4]; 62 g ai/ha): 15
Plant response rating, Bromegrass, Downy ([4]; 125 g ai/ha): 55
Plant response rating, Bromegrass, Downy ([4]; 250 g ai/ha): 95
Plant response rating, Yellow Nutsedge [5, 15]: 25
Plant response rating, Yellow Nutsedge [5, 16]: 25
Plant response rating, Yellow Nutsedge [5, 17]: 65
Plant response rating, Yellow Nutsedge [5, 18]: 0
Plant response rating, Yellow Nutsedge [5, 19]: 0
Plant response rating, Surinam Grass [6, 15]: 10
Plant response rating, Surinam Grass [6, 16]: 35
Plant response rating, Surinam Grass [6, 17]: 40
Plant response rating, Surinam Grass [6, 18]: 0
Plant response rating, Surinam Grass [6, 19]: 10
Plant response rating, Southern Sandbur [7, 15]: 10
Plant response rating, Southern Sandbur [7, 16]: 75
Plant response rating, Southern Sandbur [7, 17]: 95
Plant response rating, Southern Sandbur [7, 18]: 0
Plant response rating, Southern Sandbur [7, 19]: 0
Plant response rating, Johnsongrass [8, 15]: 75
Plant response rating, Johnsongrass [8, 16]: 98
Plant response rating, Johnsongrass [8, 17]: 98
Plant response rating, Johnsongrass [8, 18]: 0
Plant response rating, Johnsongrass [8, 19]: 25
Oat, Wild plant response rating ([9]; Postemergence, 31 g ai/ha): 15
Oat, Wild plant response rating ([9]; Postemergence, 125 g ai/ha): 25
Oat, Wild plant response rating ([9]; Postemergence, 250 g ai/ha): 50
Oat, Wild plant response rating ([9]; postemergence, 62 g ai/ha): 20
Bromegrass, Downy plant response rating ([10]; Postemergence, 31 g ai/ha): 10
Bromegrass, Downy plant response rating ([10]; Postemergence, 125 g ai/ha): 20
Bromegrass, Downy plant response rating ([10]; Postemergence, 250 g ai/ha): 30
Bromegrass, Downy plant response rating ([10]; postemergence, 62 g ai/ha): 15
Barley, Spring plant response rating ([11]; Postemergence, 31 g ai/ha): 10
Barley, Spring plant response rating ([11]; Postemergence, 125 g ai/ha): 30
Barley, Spring plant response rating ([11]; Postemergence, 250 g ai/ha): 45
Barley, Spring plant response rating ([11]; postemergence, 62 g ai/ha): 10
Barley, Winter plant response rating ([12]; Postemergence, 31 g ai/ha): 10
Barley, Winter plant response rating ([12]; Postemergence, 125 g ai/ha): 20
Barley, Winter plant response rating ([12]; Postemergence, 250 g ai/ha): 30
Barley, Winter plant response rating ([12]; postemergence, 62 g ai/ha): 10
Plant response rating, Common Waterhemp [13, 15]: 100
Plant response rating, Common Waterhemp [13, 16]: 100
Plant response rating, Common Waterhemp [13, 17]: 100
Plant response rating, Common Waterhemp [13, 18]: 75
Plant response rating, Common Waterhemp [13, 19]: 100
Plant response rating, Goosegrass [14, 15]: 40
Plant response rating, Goosegrass [14, 16]: 90
Plant response rating, Goosegrass [14, 17]: 98
Plant response rating, Goosegrass [14, 18]: 30
Plant response rating, Goosegrass [14, 19]: 35
